target: T1, Human immunodeficiency virus type 1 protease (Human immunodeficiency virus 1, UniProt Q72874); assay: Compound was tested for the inhibitory activity against HIV-protease

| SMILES | Ki |
| --- | --- |
| O=C1N(Cc2cccc(CO)c2)[C@H](Cc2ccccc2)[C@@H](Cc2ccccc2)N1Cc1cccc(CO)c1 | 15500 nM |

target: T1, Human immunodeficiency virus type 1 protease; assay: Inhibition of HIV-protease

| SMILES | Ki |
| --- | --- |
| O=C1N(Cc2cccc(CO)c2)[C@H]([C@@H](O)Cc2ccccc2)[C@@H](CCc2ccccc2)N1Cc1cccc(CO)c1 | 23 nM |
| C=CCN1C(=O)N(CC=C)[C@H]([C@@H](F)Cc2ccccc2)[C@H]1[C@@H](F)Cc1ccccc1 | 2500 nM |
| O=C1N(Cc2ccc3ccccc3c2)[C@H]([C@@H](F)Cc2ccccc2)[C@@H]([C@@H](F)Cc2ccccc2)N1Cc1ccc2ccccc2c1 | 1400 nM |
| COC(=O)c1cccc(CN2C(=O)N(Cc3cccc(C(=O)OC)c3)[C@H](CCc3ccccc3)[C@H]2[C@@H](O)Cc2ccccc2)c1 | 100 nM |
| O=C1N(Cc2cccc(O)c2)[C@H]([C@@H](F)Cc2ccccc2)[C@@H]([C@@H](F)Cc2ccccc2)N1Cc1cccc(O)c1 | 560 nM |
| O=C1N(Cc2cccc(CO)c2)[C@H](CCc2ccccc2)C[C@@H](Cc2ccccc2)N1Cc1cccc(CO)c1 | 99 nM |
| COC(=O)c1cccc(CN2C(=O)N(Cc3cccc(C(=O)OC)c3)[C@H](CCc3ccccc3)[C@H]2[C@@H](Br)Cc2ccccc2)c1 | 920 nM |
| COC(=O)c1cccc(CN2C(=O)N(Cc3cccc(C(=O)OC)c3)[C@H](CCc3ccccc3)[C@H]2CCc2ccccc2)c1 | 470 nM |
| O=C1N(CC2CC2)[C@H]([C@@H](F)Cc2ccccc2)[C@@H]([C@@H](F)Cc2ccccc2)N1CC1CC1 | 980 nM |
| O=C1N(Cc2cccc(CO)c2)[C@H](Cc2ccccc2)CC[C@@H](Cc2ccccc2)N1Cc1cccc(CO)c1 | 170 nM |
| N=C(NO)c1cccc(CN2C(=O)N(Cc3cccc(C(=N)NO)c3)[C@H](CCc3ccccc3)[C@H]2CCc2ccccc2)c1 | 17 nM |
| O=C(Oc1cccc(CN2C(=O)N(Cc3cccc(OC(=O)c4ccccc4)c3)[C@H]([C@@H](F)Cc3ccccc3)[C@H]2[C@@H](F)Cc2ccccc2)c1)c1ccccc1 | 425 nM |
| O=C1N(Cc2cccc(CO)c2)[C@H](CCc2ccccc2)[C@@H](CCc2ccccc2)N1Cc1cccc(CO)c1 | 55 nM |

— ChEMBL document CHEMBL1129848, “Synthesis and evaluation of imidazolidinones as nonpeptide HIV-protease inhibitors” (Bioorg Med Chem Lett, 1997)
